Experimental findings from patent US7897627B2, “Heteroaryl derivatives as orexin receptor antagonists” (Hoffmann-La Roche Inc., priority 2007, dated 2011) are described below.

The target of this test is T1, human orexin-2 (hOX2) receptor (Homo sapiens, UniProt O43614).
T1 construct: expressed in transfected cells
T1 sequence (O43614 1-444): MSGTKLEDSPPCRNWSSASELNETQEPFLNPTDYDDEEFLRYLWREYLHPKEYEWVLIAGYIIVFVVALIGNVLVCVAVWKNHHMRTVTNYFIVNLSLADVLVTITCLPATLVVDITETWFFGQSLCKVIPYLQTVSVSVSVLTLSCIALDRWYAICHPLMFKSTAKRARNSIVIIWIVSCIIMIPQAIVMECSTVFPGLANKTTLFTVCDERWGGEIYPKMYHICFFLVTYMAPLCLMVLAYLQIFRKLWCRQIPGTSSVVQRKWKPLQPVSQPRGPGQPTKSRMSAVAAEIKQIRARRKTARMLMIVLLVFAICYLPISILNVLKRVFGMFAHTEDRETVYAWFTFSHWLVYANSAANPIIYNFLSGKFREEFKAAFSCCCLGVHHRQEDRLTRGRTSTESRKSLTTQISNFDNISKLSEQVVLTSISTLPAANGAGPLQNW
Briefly: Intracellular Ca2+ mobilization assay (FLIPR), CHO(dHFr-) cells expressing hOX2, orexin-A as agonist. It counts as cell-based. To be noted: antagonist Kb=IC50/(1+[A]/EC50); orexin-A at EC80; CHO(dHFr-)-OX2R cells; antagonist applied 25 min before agonist. On the procedure:
Intracellular Ca^2+ Mobilization Assay
The Chinese Hamster Ovary (dHFr-) mutant cell line stably expressing human orexin-1 (hOX1) or human orexin-2 (hOX2) receptors were maintained in Dulbecco's Modified Eagle Medium (1×) with GlutaMax™1, 4500 mg/L D-Glucose and Sodium Pyruvate (Catalog No. 31966-021, Invitrogen, Carlsbad, Calif.), 5% dialyzed fetal calf serum (Catalog No. 26400-044), 100 μg/ml penicillin and 100 μg/ml streptomycin. The cells were seeded at 5×10^4 cells/well in the poly-D-lysine treated, 96-well, black/clear-bottomed plates (Catalog No. BD356640, BD Biosciences, Palo Alto, Calif.). 24 h later, the cells were loaded for 1 h at 37° C. with 4 μM Flou-4 acetoxymethyl ester (Catalog No. F-14202, Molecular Probes, Eugene, Oreg.) in FLIPR buffer (1×HBSS, 20 mM HEPES, 2.5 mM Probenecid). Hanks' Balanced Salt Solution (HBSS) (10×) (catalog No. 14065-049) and HEPES (1M) (catalog No. 15630-056) were purchased from Invitrogen, Carlsbad, Calif. Probenecid (250 mM) (catalog No. P8761) was from Sigma, Buchs, Switzerland. The cells were washed five times with FLIPR buffer to remove excess dye and intracellular calcium mobilization, [Ca^2−]i were measured using a Fluorometric Imaging Plate Reader (FLIPR-96, Molecular Devices, Menlo Park, Calif.) as described previously (Malherbe et al., Mol. Pharmacol., 64, 823-832, 2003). Orexin A (catalog No. 1455, Toris Cookson Ltd, Bristol, UK) was used as agonist. Orexin A ([…] stock solution in DMSO) was diluted in FLIPR buffer+0.1% BSA. The EC50 and EC80 values of orexin-A were measured daily from standard agonist concentration-response curves in CHO(dHFr-)-OX1R and -OX2R cell lines. All compounds were dissolved in 100% DMSO. Inhibition curves were determined by addition of 11 concentrations (0.0001-10 μM) of inhibitory compounds and using EC80 value of orexin-A as agonist (a concentration which gave 80% of max agonist response, determined daily). The antagonists were applied 25 min (incubation at 37° C.) before the application of the agonist. Responses were measured as peak increase in fluorescence minus basal, normalized to the maximal stimulatory effect induced by EC80 value of orexin-A or orexin-B. Inhibition curves were fitted according to the Hill equation: y=100/(1+(x/IC50)^nH), where nH=slope factor using Excel-fit 4 software (Microsoft).
Kb values were calculated according to the following equation Kb=IC50/(1+[A]/EC50) where A is the concentration of agonist added which is very close to agonist EC80 value, and IC50 and EC50 values were derived from the antagonist inhibition and orexin-A or B agonist curves, respectively.
A word on the Kb: it is the affinity of an antagonist, worked out from how it opposes an agonist. Compound `Cc1cccc(-c2ccccc2C(=O)N2CC[C@@H](Nc3nc4ccc(Cl)cc4o3)C2)c1` [Example 75, [(R)-3-(6-Chloro-benzooxazol-2-ylamino)-pyrrolidin-1-yl]-(3′-methyl-biphenyl-2-yl)-methanone] registered a Kb of 0.0163 µM.
The same measure for `Cc1nc(-c2ccccc2)c(C(=O)N2CC[C@@H](Nc3nc4ccc(Cl)cc4o3)C2)s1` [Example 78, [(R)-3-(6-Chloro-benzooxazol-2-ylamino)-pyrrolidin-1-yl]-(2-methyl-4-phenyl-thiazol-5-yl)-methanone]: 0.0145 µM.
`O=C(c1c(Cl)cccc1C(F)(F)F)N1CC[C@@H](Nc2nc3ccc(Cl)cc3o2)C1` [Example 79, [(R)-3-(6-Chloro-benzooxazol-2-ylamino)-pyrrolidin-1-yl]-(2-chloro-6-trifluoromethyl-phenyl)-methanone] yielded a Kb of 0.0173 µM.
In turn, `O=C(c1ccccc1OC(F)(F)C(F)F)N1CC[C@@H](Nc2nc3ccc(Cl)cc3o2)C1` [Example 82, [(R)-3-(6-Chloro-benzooxazol-2-ylamino)-pyrrolidin-1-yl]-[2-(1,1,2,2-tetrafluoro-ethoxy)-phenyl]-methanone] displayed a Kb of 0.0041 µM.
The compound `O=C(c1ccccc1-c1ccsc1)N1CC[C@@H](Nc2nc3ccc(Cl)cc3o2)C1` [Example 84, [(R)-3-(6-Chloro-benzooxazol-2-ylamino)-pyrrolidin-1-yl]-(2-thiophen-3-yl-phenyl)-methanone] showed a Kb of 0.0056 µM.
Consider `Cc1cc(C(=O)N2CC[C@@H](Nc3nc4ccc(Cl)cc4o3)C2)c(C(F)(F)F)o1` [Example 86, [(R)-3-(6-Chloro-benzooxazol-2-ylamino)-pyrrolidin-1-yl]-(5-methyl-2-trifluoromethyl-furan-3-yl)-methanone], for which the Kb came to 0.0169 µM.
Under `O=C(c1c(F)cccc1N1CCCC1)N1CC[C@@H](Nc2nc3ccc(Cl)cc3o2)C1` [Example 90, [(R)-3-(6-Chloro-benzooxazol-2-ylamino)-pyrrolidin-1-yl]-(2-fluoro-6-pyrrolidin-1-yl-phenyl)-methanone] stands 0.0186 µM.
The same measure for `COc1cccc(OC)c1C(=O)N1CC[C@@H](Nc2cnc3cc(F)c(F)cc3n2)C1` [Example 92, [(R)-3-(6,7-Difluoro-quinoxalin-2-ylamino)-pyrrolidin-1-yl]-(2,6-dimethoxy-phenyl)-methanone]: 0.0029 µM.
Take `COc1cccc(OC)c1C(=O)N1CC[C@@H](Nc2nc3ccc(F)c(F)c3o2)C1` [Example 93, [(R)-3-(6,7-Difluoro-benzooxazol-2-ylamino)-pyrrolidin-1-yl]-(2,6-dimethoxy-phenyl)-methanone]: the Kb was determined as 0.0164 µM.
The same measure for `COc1cccc(OC)c1C(=O)N1CC[C@@H](Nc2nc3c(F)cccc3s2)C1` [Example 94, (2,6-Dimethoxy-phenyl)-[(R)-3-(4-fluoro-benzothiazol-2-ylamino)-pyrrolidin-1-yl]-methanone]: 0.0091 µM.
For `COc1cccc(OC)c1C(=O)N1CC[C@@H](Nc2nc3ccc(F)cc3o2)C1` [Example 95, (2,6-Dimethoxy-phenyl)-[(R)-3-(6-fluoro-benzooxazol-2-ylamino)-pyrrolidin-1-yl]-methanone], the Kb turned out to be 0.0426 µM.
Under `COc1cccc(OC)c1C(=O)N1CC[C@@H](Nc2nc3cccc(Cl)c3o2)C1` [Example 97, [(R)-3-(7-Chloro-benzooxazol-2-ylamino)-pyrrolidin-1-yl]-(2,6-dimethoxy-phenyl)-methanone] stands 0.0063 µM; under `COc1cccc(OC)c1C(=O)N1CC[C@@H](Nc2nc3cccc(F)c3s2)C1` [Example 100, (2,6-Dimethoxy-phenyl)-[(R)-3-(7-fluoro-benzothiazol-2-ylamino)-pyrrolidin-1-yl]-methanone], 0.01 µM; under `COc1cccc(OC)c1C(=O)N1CC[C@@H](Nc2nc3c(C)cccc3o2)C1` [Example 106, (2,6-Dimethoxy-phenyl)-[(R)-3-(4-methyl-benzooxazol-2-ylamino)-pyrrolidin-1-yl]-methanone], 0.0129 µM.
The same measure for `COc1cccc(OC)c1C(=O)N1CC[C@@H](Nc2cnc3cc(F)ccc3n2)C1` [Example 110, (2,6-Dimethoxy-phenyl)-[(R)-3-(6-fluoro-quinoxalin-2-ylamino)-pyrrolidin-1-yl]-methanone]: 0.0319 µM; for `O=C(c1ccccc1C(F)(F)F)N1CC[C@@H](Nc2nc3ccc(F)cc3s2)C1` [Example 112, [(R)-3-(6-Fluoro-benzothiazol-2-ylamino)-pyrrolidin-1-yl]-(2-trifluoromethyl-phenyl)-methanone]: 0.0344 µM.
The same measure for `O=C(c1ccccc1OC(F)(F)F)N1CC[C@@H](Nc2nc3ccc(F)cc3s2)C1` [Example 113, [(R)-3-(6-Fluoro-benzothiazol-2-ylamino)-pyrrolidin-1-yl]-(2-trifluoromethoxy-phenyl)-methanone]: 0.0217 µM; for `O=C(c1ccccc1OC(F)(F)C(F)F)N1CC[C@@H](Nc2nc3ccc(F)cc3s2)C1` [Example 114, [(R)-3-(6-Fluoro-benzothiazol-2-ylamino)-pyrrolidin-1-yl]-[2-(1,1,2,2-tetrafluoro-ethoxy)-phenyl]-methanone]: 0.002 µM.
`Cc1ccc(C(F)(F)F)c(C(=O)N2CC[C@@H](Nc3nc4ccc(F)cc4s3)C2)c1` [Example 115, [(R)-3-(6-Fluoro-benzothiazol-2-ylamino)-pyrrolidin-1-yl]-(5-methyl-2-trifluoromethyl-phenyl)-methanone] had a Kb of 0.0068 µM.
Under `Cc1onc(-c2ccccc2)c1C(=O)N1CC[C@@H](Nc2nc3ccc(F)cc3s2)C1` [Example 116, [(R)-3-(6-Fluoro-benzothiazol-2-ylamino)-pyrrolidin-1-yl]-(5-methyl-3-phenyl-isoxazol-4-yl)-methanone] stands 0.0261 µM.
`Cc1noc(-c2ccccc2C(=O)N2CC[C@@H](Nc3nc4ccc(F)cc4s3)C2)n1` [Example 117, [(R)-3-(6-Fluoro-benzothiazol-2-ylamino)-pyrrolidin-1-yl]-[2-(3-methyl-[1,2,4]oxadiazol-5-yl)-phenyl]-methanone]: the antagonist equilibrium constant (Kb) stood at 0.0197 µM.
The compound `Cc1ccc(Cl)c(C(=O)N2CC[C@@H](Nc3nc4ccc(F)cc4s3)C2)c1` [Example 118, (2-Chloro-5-methyl-phenyl)-[(R)-3-(6-fluoro-benzothiazol-2-ylamino)-pyrrolidin-1-yl]-methanone] showed a Kb of 0.039 µM.
The same measure for `Cc1nc(C(=O)N2CC[C@@H](Nc3nc4ccc(F)cc4s3)C2)c(-c2ccccc2)s1` [Example 120, [(R)-3-(6-Fluoro-benzothiazol-2-ylamino)-pyrrolidin-1-yl]-(2-methyl-5-phenyl-thiazol-4-yl)-methanone]: 0.0188 µM.
Under `O=C(c1ccccc1OC(F)(F)F)N1CC[C@@H](Nc2nc3c(F)cccc3s2)C1` [Example 122, [(R)-3-(4-Fluoro-benzothiazol-2-ylamino)-pyrrolidin-1-yl]-(2-trifluoromethoxy-phenyl)-methanone] stands 0.0193 µM; under `O=C(c1ccccc1OC(F)(F)C(F)F)N1CC[C@@H](Nc2nc3c(F)cccc3s2)C1` [Example 123, [(R)-3-(4-Fluoro-benzothiazol-2-ylamino)-pyrrolidin-1-yl]-[2-(1,1,2,2-tetrafluoro-ethoxy)-phenyl]-methanone], 0.0032 µM; under `Cc1ccc(C(F)(F)F)c(C(=O)N2CC[C@@H](Nc3nc4c(F)cccc4s3)C2)c1` [Example 124, [(R)-3-(4-Fluoro-benzothiazol-2-ylamino)-pyrrolidin-1-yl]-(5-methyl-2-trifluoromethyl-phenyl)-methanone], 0.0363 µM.
